Results: patent US12486269B2 (Aconcagua Bio, Inc., priority 2024, dated 2025)
pEC50: −log10 of the molar value.

Legend:
[1] = target: T1, human calcitonin receptor (CTR) (Homo sapiens, UniProt P30988); experiment: Calcitonin Receptor (CTR) cAMP Assay; type: cell-based; conditions: COS7-human CTR Clone #2 stable cell line, cAMP dynamic 2 kit, 30 min; read-out: Calcitonin Receptor cAMP Stimulation Activity: EC50
T1 construct: expressed in transfected cells; host or cells: COS-7 (COS7-human CTR Clone #2)
T1 sequence (P30988 25-474): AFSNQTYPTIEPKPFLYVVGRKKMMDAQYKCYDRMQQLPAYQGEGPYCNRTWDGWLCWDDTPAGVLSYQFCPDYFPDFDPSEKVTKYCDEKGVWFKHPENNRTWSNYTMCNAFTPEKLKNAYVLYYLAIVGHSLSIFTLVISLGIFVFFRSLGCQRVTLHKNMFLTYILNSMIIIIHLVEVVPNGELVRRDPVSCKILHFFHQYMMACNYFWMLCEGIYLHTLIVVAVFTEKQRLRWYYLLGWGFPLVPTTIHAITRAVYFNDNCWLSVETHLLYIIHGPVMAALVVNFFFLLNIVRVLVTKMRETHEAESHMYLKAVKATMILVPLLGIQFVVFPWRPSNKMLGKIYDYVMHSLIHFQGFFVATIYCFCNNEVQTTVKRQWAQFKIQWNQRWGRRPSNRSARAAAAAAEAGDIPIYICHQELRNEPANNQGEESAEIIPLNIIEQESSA
Method in brief: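 cAMP accumulation was measured by HTRF cAMP dynamic 2 read at 665/615 nm, 1 h at room temperature, with results scaled between vehicle and positive control. Before detection, COS7-human CTR stable cells were stimulated 30 min at 37 °C with compound (4-fold dilutions) in IBMX-containing HBSS/HEPES/casein buffer.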

[2] = target: T2, COS-7/AMY3 (human calcitonin receptor (CTR) and RAMP3) (Homo sapiens, UniProt O60896+P30988); experiment: Amylin Receptor cAMP Assay II; type: cell-based; conditions: values marked **: Amylin Receptor cAMP Assay II; COS-7/AMY3 cells, cAMP dynamic 2 kit, 30 min; read-out: Amylin Receptor cAMP Stimulation Activity: EC50
T2 construct: expressed in transfected cells; host or cells: COS-7
T2 sequence (O60896 24-148, one chain of several): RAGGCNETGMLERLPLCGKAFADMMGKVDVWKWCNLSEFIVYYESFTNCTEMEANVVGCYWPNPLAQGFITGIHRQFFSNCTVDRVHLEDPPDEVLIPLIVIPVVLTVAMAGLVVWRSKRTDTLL
Method in brief: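 Agonist-induced cAMP was quantified by HTRF ratio at 665/615 nm and expressed as % of the window from vehicle to MAX control. Stimulation lasted 30 min at 37 °C in HBSS/20 mM HEPES/0.5 mM IBMX/0.1% casein, using stable human CTR+RAMP3 (AMY3) COS-7 cells at 2000 per well.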

Row | Compound | pEC50 [1] | pEC50 [2]
1 | COc1c(F)ccc2c1C[C@@H](F)[C@H]2Nc1nccc2cc(-c3c4c(nc(CCc5ccc(F)cc5)c3-c3n[nH]c(=O)o3)C35CC(CN3C4=O)C5)sc12 [Compound 291, 5-(4-(7-(((1S,2R)-2,5-difluoro-4-methoxy-2,3-dihydro-1H-inden-1-yl)amino)thieno[2,3-c]pyridin-2-yl)-2-(4-fluorophenethyl)-5-oxo-5,7,8,9-tetrahydro-8,9a-methanopyrido[2,3-a]pyrrolizin-3-yl)-1,3,4-oxadiazol-2(3H)-one] | 10.86 | 9.44
2 | COc1c(F)ccc2c1CC(F)(F)[C@@H]2Nc1nccc2cc(-c3c4c(nc(CCc5ccc(F)cc5)c3-c3n[nH]c(=O)o3)C35CC(CN3C4=O)C5)sc12 [Compound 292, (R)-5-(2-(4-fluorophenethyl)-5-oxo-4-(7-((2,2,5-trifluoro-4-methoxy-2,3-dihydro-1H-inden-1-yl)amino)thieno[2,3-c]pyridin-2-yl)-5,7,8,9-tetrahydro-8,9a-methanopyrido[2,3-a]pyrrolizin-3-yl)-1,3,4-oxadiazol-2(3H)-one] | 8.13 | 6.53
3 | O=C1c2c(nc(CCc3ccc(F)cc3)c(-c3n[nH]c(=O)o3)c2-c2cc3ccnc(N[C@@H]4CCOc5c(F)cc(F)cc54)c3s2)C23CC(CN12)C3 [Compound 293, (R)-5-(4-(7-((6,8-difluorochroman-4-yl)amino)thieno[2,3-c]pyridin-2-yl)-2-(4-fluorophenethyl)-5-oxo-8,9-dihydro-5H,7H-8,9a-methanopyrido[2,3-a]pyrrolizin-3-yl)-1,3,4-oxadiazol-2(3H)-one] | 10.31 | 8.57
4 | COc1cc(F)cc2c1CC[C@H]2Nc1nccc2cc(-c3c4c(nc(CCc5ccc(F)cc5)c3-c3n[nH]c(=O)o3)C35CC(CN3C4=O)C5)sc12 [Compound 294, (R)-5-(4-(7-((6-fluoro-4-methoxy-2,3-dihydro-1H-inden-1-yl)amino)thieno[2,3-c]pyridin-2-yl)-2-(4-fluorophenethyl)-5-oxo-5,7,8,9-tetrahydro-8,9a-methanopyrido[2,3-a]pyrrolizin-3-yl)-1,3,4-oxadiazol-2(3H)-one] | 10.36 | 9.25
5 | Cc1cc2cc(-c3c4c(nc(CCc5ccc(F)cc5)c3-c3n[nH]c(=O)o3)C35CC(CN3C4=O)C5)sc2c(N[C@@H]2CCOc3c(F)cc(F)cc32)n1 [Compound 295, (R)-5-(4-(7-((6,8-difluorochroman-4-yl)amino)-5-methylthieno[2,3-c]pyridin-2-yl)-2-(4-fluorophenethyl)-5-oxo-8,9-dihydro-5H,7H-8,9a-methanopyrido[2,3-a]pyrrolizin-3-yl)-1,3,4-oxadiazol-2(3H)-one] | 10.54 | 8.92
6 | COc1c(F)ccc2c1CC(F)(F)[C@H]2Nc1nc(C)cc2cc(-c3c4c(nc(CCc5ccc(F)cc5)c3-c3n[nH]c(=O)o3)C35CC(CN3C4=O)C5)sc12 [Compound 296, (S)-5-(2-(4-fluorophenethyl)-4-(5-methyl-7-((2,2,5-trifluoro-4-methoxy-2,3-dihydro-1H-inden-1-yl)amino)thieno[2,3-c]pyridin-2-yl)-5-oxo-8,9-dihydro-5H,7H-8,9a-methanopyrido[2,3-a]pyrrolizin-3-yl)-1,3,4-oxadiazol-2(3H)-one] | 10.79 | 9.57
7 | O=C1c2c(nc(CCc3ccc(F)cc3)c(-c3n[nH]c(=O)o3)c2-c2cc3cc(C(F)F)nc(N[C@@H]4CCOc5c(F)cc(F)cc54)c3s2)C23CC(CN12)C3 [Compound 297, (R)-5-(4-(7-((6,8-difluorochroman-4-yl)amino)-5-(difluoromethyl)thieno[2,3-c]pyridin-2-yl)-2-(4-fluorophenethyl)-5-oxo-8,9-dihydro-5H,7H-8,9a-methanopyrido[2,3-a]pyrrolizin-3-yl)-1,3,4-oxadiazol-2(3H)-one] | 10.38 | 8.97
8 | COc1cc(F)cc2c1CC[C@H]2Nc1nc(C)cc2cc(-c3c4c(nc(CCc5ccc(F)cc5)c3-c3n[nH]c(=O)o3)C35CC(CN3C4=O)C5)sc12 [Compound 298, (R)-5-(4-(7-((6-fluoro-4-methoxy-2,3-dihydro-1H-inden-1-yl)amino)-5-methylthieno[2,3-c]pyridin-2-yl)-2-(4-fluorophenethyl)-5-oxo-8,9-dihydro-5H,7H-8,9a-methanopyrido[2,3-a]pyrrolizin-3-yl)-1,3,4-oxadiazol-2(3H)-one] | 10.67 | 9.13
9 | COc1c(F)c(F)cc2c1CC[C@H]2Nc1nc(C)cc2cc(-c3c4c(nc(CCc5ccc(F)cc5)c3-c3n[nH]c(=O)o3)[C@@H]3CCCN3C4=O)sc12 [Compound 299, 5-((S)-4-(7-(((R)-5,6-difluoro-4-methoxy-2,3-dihydro-1H-inden-1-yl)amino)-5-methylthieno[2,3-c]pyridin-2-yl)-2-(4-fluorophenethyl)-5-oxo-7,8,9,9a-tetrahydro-5H-pyrido[2,3-a]pyrrolizin-3-yl)-1,3,4-oxadiazol-2(3H)-one] | 10.76 | 9.44
10 | COc1c(F)ccc2c1CC[C@H]2Nc1nc(C)cc2cc(-c3c4c(nc(CCc5cccc(F)c5)c3-c3n[nH]c(=O)o3)C35CC(CN3C4=O)C5)sc12 [Compound 300, (R)-5-(4-(7-((5-fluoro-4-methoxy-2,3-dihydro-1H-inden-1-yl)amino)-5-methylthieno[2,3-c]pyridin-2-yl)-2-(3-fluorophenethyl)-5-oxo-8,9-dihydro-5H,7H-8,9a-methanopyrido[2,3-a]pyrrolizin-3-yl)-1,3,4-oxadiazol-2(3H)-one] | 10.80 | 9.44
11 | COc1c(F)ccc2c1C[C@@H](F)[C@H]2Nc1nc(C)cc2cc(-c3c4c(nc(CCc5ccc(F)cc5)c3-c3n[nH]c(=O)o3)[C@@H]3CCCN3C4=O)sc12 [Compound 301, 5-((S)-4-(7-(((1S,2R)-2,5-difluoro-4-methoxy-2,3-dihydro-1H-inden-1-yl)amino)-5-methylthieno[2,3-c]pyridin-2-yl)-2-(4-fluorophenethyl)-5-oxo-7,8,9,9a-tetrahydro-5H-pyrido[2,3-a]pyrrolizin-3-yl)-1,3,4-oxadiazol-2(3H)-one] | 10.26 | 9.07
12 | COc1c(F)ccc2c1CC[C@H]2Nc1nc(C)cc2cc(-c3c4c(nc(CCc5ccc(F)cc5)c3-c3n[nH]c(=O)o3)C(C3CC3)NC4=O)sc12 (stereo partly drawn) [Compound 302, 5-(7-cyclopropyl-4-(7-(((R)-5-fluoro-4-methoxy-2,3-dihydro-1H-inden-1-yl)amino)-5-methylthieno[2,3-c]pyridin-2-yl)-2-(4-fluorophenethyl)-5-oxo-6,7-dihydro-5H-pyrrolo[3,4-b]pyridin-3-yl)-1,3,4-oxadiazol-2(3H)-one] | 9.87 | 8.40
13 | COc1c(F)ccc2c1CC(F)(F)[C@H]2Nc1nc(C)cc2cc(-c3c4c(nc(CCc5ccc(F)cc5)c3-c3n[nH]c(=O)o3)[C@@H]3CCCN3C4=O)sc12 [Compound 303, 5-((S)-2-(4-fluorophenethyl)-4-(5-methyl-7-(((S)-2,2,5-trifluoro-4-methoxy-2,3-dihydro-1H-inden-1-yl)amino)thieno[2,3-c]pyridin-2-yl)-5-oxo-7,8,9,9a-tetrahydro-5H-pyrido[2,3-a]pyrrolizin-3-yl)-1,3,4-oxadiazol-2(3H)-one] | 10.47 | 9.16
